# PMC2890073 (Immunogenetics, 2010)
# Where no end group is shown, it is not given here.
# Tests used:
# [1] = biological target: HLA-B*0702 (Homo sapiens, UniProt P01889); experiment: HLA-B*0702 peptide binding assay
# [2] = biological target: HLA-B*5301 (Homo sapiens, UniProt P01889, A329T/A93T/A95T/C349S/D201E/D98Y/E176V/E187L/E204Q/E69T/G107R/I218V/K202T/L105A/L119I/N104I/Q94N/R106L/R155S/R180L/S101N/S121R/S35A/S48A/T118I/V127L/V306I/V36M/Y140S/Y91F); experiment: HLA-B*5301 peptide binding assay
# [3] = biological target: HLA-B*3501 (Homo sapiens, UniProt P01889, A329T/A93T/A95T/C349S/D201E/D98Y/E176V/E187L/E204Q/E69T/I218V/K202T/L119I/Q94N/R155S/R180L/S121R/S35A/S48A/T118I/V127L/V306I/V36M/Y140S/Y91F); experiment: HLA-B*3501 peptide binding assay
molecule,measurement,setting,value
CC(C)C[C@H](NC(=O)[C@@H]1CCCN1C(=O)[C@@H](NC(=O)[C@H](CCC(N)=O)NC(=O)[C@@H]1CCCN1C(=O)[C@@H](NC(=O)[C@@H](NC(=O)[C@@H]1CCCN1C(=O)[C@@H](N)Cc1ccccc1)C(C)C)[C@@H](C)O)C(C)C)C(=O)O,IC50,[1],1 nM
CC(C)C[C@H](NC(=O)[C@@H]1CCCN1C(=O)[C@@H](N)Cc1ccc(O)cc1)C(=O)N[C@H](C(=O)N[C@@H](Cc1ccccc1)C(=O)NCC(=O)N[C@@H](Cc1c[nH]c2ccccc12)C(=O)N[C@@H](CS)C(=O)N[C@@H](Cc1ccccc1)C(=O)O)[C@@H](C)O,IC50,[2],9.5 nM
HPDIVIYQY,IC50,[3],7.9 nM
